In patent US8802678B2, “Carbonylated (aza) cyclohexanes as dopamine D3 receptor ligands” (Bioprojet, priority 2006, dated 2014) one finds melting point data, which are given here for 26 molecules.

Structures are written as SMILES.

In general, melting point refers to the temperature, or range, at which the solid turns liquid.

Molecule `CCOCC(=O)N[C@H]1CC[C@H](CCN2CCN(c3cc(C(F)(F)F)cc(C(F)(F)F)c3)CC2)CC1` [Example 108, N-(4-{2-[4-(3,5-Bistrifluoro-methylphenyl)piperazin-1-yl]ethyl}cyclohexyl)-2-ethoxyacetamide] displayed a melting point of 135 °C.
In the case of `CC(C)(C)c1cc(N2CCN(CC[C@H]3CC[C@H](NC(=O)CC#N)CC3)CC2)nc(C(C)(C)C)n1` [Example 111, 2-Cyano-N-(4-{2-[4-(2,6-di-tert-butylpyrimidin-4-yl)piperazin-1-yl]ethyl}cyclohexyl)acetamide trans/cis 65/35] it was 145 °C; in that of `CCOCC(=O)N[C@H]1CC[C@H](CCN2CCN(c3cccc(F)c3F)CC2)CC1` [Example 112, N-(4-{2-[4-(2,3-Difluorophenyl)-piperazin-1-yl]ethyl}cyclohexyl)-2-ethoxyacetamide], 140 °C; in that of `N#CCC(=O)N[C@H]1CC[C@H](CCN2CCN(c3cccc(F)c3F)CC2)CC1` [Example 113, 2-Cyano-N-(4-{2-[4-(2,3-difluorophenyl)piperazin-1-yl]ethyl}cyclohexyl)acetamide], 190 °C.
The value for `Cc1cccc(N2CCN(CC[C@H]3CC[C@H](NC(=O)CC#N)CC3)CC2)c1C#N` [Example 114, 2-Cyano-N-(4-{2-[4-(2-cyano-3-methylphenyl)piperazin-1-yl]ethyl}cyclohexyl)acetamide] was 221 °C.
The molecule `Cc1cccc(N2CCN(CC[C@H]3CC[C@H](NC(=O)CC(F)(F)F)CC3)CC2)c1C#N` [Example 115, N-(4-{2-[4-(2-Cyano-3-methylphenyl)piperazin-1-yl]ethyl}cyclohexyl)-3,3,3-trifluoropropanamide] displayed a melting point of 207 °C.
`N#CCC(=O)N[C@H]1CC[C@H](CCN2CCN(c3cccc4c3CCCC4)CC2)CC1` [Example 116, 2-Cyano-N-(4-{2-[4-(5,6,7,8-tetrahydronaphthalen-1-yl)piperazin-1-yl]ethyl}cyclohexyl)acetamide] came in with a melting point of 175 °C.
`CCOCC(=O)N[C@H]1CC[C@H](CCN2CCN(c3cccc4c3CCCC4)CC2)CC1` [Example 117, 2-Ethoxy-N-(4-{2-[4-(5,6,7,8-tetrahydronaphthalen-1-yl)piperazin-1-yl]ethyl}-cyclohexyl)acetamide] had a melting point of 91 °C.
The molecule `COCC(=O)N[C@H]1CC[C@H](CCN2CCN(c3cc(C(F)(F)F)cc(C(F)(F)F)c3)CC2)CC1` [Example 118, N-(4-{2-[4-(3,5-Bistrifluoro-methylphenyl)piperazin-1-yl]ethyl}cyclohexyl)-2-methoxyacetamide] came in with a melting point of 164 °C.
In the case of `COCC(=O)N[C@H]1CC[C@H](CCN2CCN(c3cccc(C(F)(F)F)c3C#N)CC2)CC1` [Example 119, N-(4-{2-[4-(2-Cyano-3-trifluoromethylphenyl)piperazin-1-yl]ethyl}cyclohexyl)-2-methoxyacetamide] it was 172 °C; in that of `CCOCC(=O)N[C@H]1CC[C@H](CCN2CCN(c3cc(C(C)(C)C)nc(C(C)(C)C)n3)CC2)CC1` [Example 121, N-(4-{2-[4-(2,6-Di-tert-butylpyrimidin-4-yl)piperazin-1-yl]ethyl}cyclohexyl)-2-ethoxyacetamide], 104 °C.
The value for `COCC(=O)N[C@H]1CC[C@H](CCN2CCN(c3cc(C(C)(C)C)nc(C(C)(C)C)n3)CC2)CC1` [Example 122, N-(4-{2-[4-(2,6-Di-tert-butylpyrimidin-4-yl)piperazin-1-yl]ethyl}cyclohexyl)-2-methoxyacetamide] was 130 °C; that for `CCOCC(=O)N[C@H]1CC[C@H](CCN2CCN(c3ccccc3OC)CC2)CC1` [Example 123, 2-Ethoxy-N-(4-{2-[4-(2-methoxyphenyl)piperazin-1-yl]ethyl}cyclohexyl)acetamide] was 210 to 214 °C; that for `COc1ccccc1N1CCN(CC[C@H]2CC[C@H](NC(=O)CC#N)CC2)CC1` [Example 124, 2-Cyano-N-(4-{2-[4-(2-methoxyphenyl)piperazin-1-yl]ethyl}cyclohexyl)acetamide] was 187 °C.
In the case of `COCC(=O)N[C@H]1CC[C@H](CCN2CCN(c3ccccc3OC)CC2)CC1` [Example 125, 2-Methoxy-N-(4-{2-[4-(2-methoxyphenyl)piperazin-1-yl]ethyl}cyclohexyl)acetamide] it was 125 to 126 °C; in that of `CC(=O)NCC(=O)N[C@H]1CC[C@H](CCN2CCN(c3ccccc3)CC2)CC1` [Example 128, 2-Acetylamino-N-{4-[2-(4-phenylpiperazin-1-yl)ethyl]cyclohexyl}acetamide], 227 °C; in that of `COCC(=O)N[C@H]1CC[C@H](CCN2CCN(c3ccccc3Cl)CC2)CC1` [Example 129, N-(4-{2-[4-(2-Chlorophenyl)-piperazin-1-yl]ethyl}cyclohexyl)-2-methoxyacetamide], 100 °C.
In the case of `COCC(=O)N[C@H]1CC[C@H](CCN2CCN(c3cccc4c3CCCC4)CC2)CC1` [Example 130, 2-Methoxy-N-(4-{2-[4-(5,6,7,8-tetrahydronaphthalen-1-yl)piperazin-1-yl]ethyl}cyclohexyl)acetamide], the melting point came to 120 °C.
The value for `N#CCC(=O)N[C@H]1CC[C@H](CCN2CCN(c3ccccc3Cl)CC2)CC1` [Example 131, N-(4-{2-[4-(2-Chlorophenyl)-piperazin-1-yl]ethyl}cyclohexyl)-2-cyanoacetamide] was 194 °C; that for `CCOCC(=O)N[C@H]1CC[C@H](CCN2CCN(c3ccccc3Cl)CC2)CC1` [Example 132, N-(4-{2-[4-(2-Chlorophenyl)-piperazin-1-yl]ethyl}cyclohexyl)-2-ethoxyacetamide] was 108 °C.
The value for `N#CCC(=O)N[C@H]1CC[C@H](CCN2CCN(c3cccc(F)c3)CC2)CC1` [Example 133] was 202 °C; that for `CC(=O)NCC(=O)N[C@H]1CC[C@H](CCN2CCN(c3ccccc3F)CC2)CC1` [Example 134, 2-Acetylamino-N-(4-{2-[4-(2-fluorophenyl)piperazin-1-yl]ethyl}cyclohexyl)acetamide] was 217 °C; that for `CC(C)(C)OCC(=O)N[C@H]1CC[C@H](CCN2CCN(c3cccc(C(F)(F)F)c3)CC2)CC1` [Example 135, 2-tert-Butoxy-N-(4-{2-[4-(3-trifluoromethylphenyl)piperazin-1-yl]ethyl}cyclohexyl)acetamide trans/cis 95/5] was 81 °C.
The value for `Cc1c(Cl)cccc1N1CCN(CC[C@H]2CC[C@H](NC(=O)CC#N)CC2)CC1` [Example 136, N-(4-{2-[4-(3-Chloro-2-methylphenyl)piperazin-1-yl]ethyl}cyclohexyl)-2-cyanoacetamide] was 179 to 182 °C.
In turn, `CCOCC(=O)N[C@H]1CC[C@H](CCN2CCN(c3cccc(Cl)c3C)CC2)CC1` [Example 137, N-(4-{2-[4-(3-Chloro-2-methylphenyl)piperazin-1-yl]ethyl}cyclohexyl)-2-ethoxyacetamide] registered a melting point of 143 °C.
In the case of `N#CCC(=O)N[C@H]1CC[C@H](CCN2CCN(c3cc(C#N)cc(C(F)(F)F)c3)CC2)CC1` [Example 138, 2-Cyano-N-(4-{2-[4-(3-cyano-5-trifluoromethylphenyl)piperazin-1-yl]ethyl}cyclohexyl)acetamide] it was 186 °C.
